Reference: patent US20070129344A1, “Bicyclic 6-alkylidene-penem beta-lactamase inhibitors and beta-lactam antibiotic combination: a broad spectrum antibiotic” (priority 2005, published 2007)

Legend:
[1] = system: K. pn GC 6488 (TEM-1 + SHV-5 + SHV-7); experiment: MIC microbroth dilution; β-lactamase class A, A (ESBL); format: cell-based, K. pneumoniae; conditions: Cefepime + 4 ug/ml Compound 1
Protocol: (§1) The in vitro activities of the antibiotics were determined by the microbroth dilution method as recommended by the National Committee for Clinical Laboratory Standards (NCCLS). (NCCLS. 2000. Methods for Dilution Antimicrobial Susceptibility Tests for Bacteria That Grow Aerobically; Approved Standards: M7-A5, vol. 19. National Committee for Clinical Laboratory Standards, Villanova, Pa.). Mueller-Hinton II broth (MHBII)(BBL Cockeysville, Md.), was used for the testing procedure. […]. The plates were incubated for 18-22 hours at 35° C. in ambient air.

[2] = system: K. pn GC 1963 (TEM-10 + SHV-1 + SHV-ESBL); experiment: as above; format: cell-based, K. pneumoniae; conditions: Cefepime + 4 ug/ml Compound 1
Protocol: as §1

[3] = system: K. pn GC 6651 (TEM-1 + SHV-1 + SHV-5); experiment: as above; format: cell-based, K. pneumoniae; conditions: Cefepime + 4 ug/ml Compound 1
Protocol: as §1

[4] = system: K. pn GC 2006 (TEM-10 + SHV-1); experiment: as above; format: cell-based, K. pneumoniae; conditions: Cefepime + 4 ug/ml Compound 1
Protocol: as §1

[5] = system: E. coli GAR 6649 TEM, OXA, CTX (By PCR only); experiment: MIC microbroth dilution; β-lactamase class A, A (ESBL), D; format: cell-based; conditions: Cefepime + 4 ug/ml Compound 1
Protocol: as §1

E. coli GC 2844 (none) = experiment: MIC microbroth dilution; β-lactamase class none; format: cell-based; conditions: Cefepime + 4 ug/ml Compound 1
Protocol: as §1

E. coli GC 2804 (imp) = experiment: MIC microbroth dilution; β-lactamase class none; format: cell-based; conditions: Cefepime + 4 ug/ml Compound 1
Protocol: as §1

[6] = system: E. coli ATCC 25922 (none); experiment: MIC microbroth dilution; β-lactamase class none; format: cell-based; conditions: E. coli ATCC 25922; Cefepime + 4 ug/ml Compound 1
Protocol: as §1

E. cloacae GC 1475 (P99) = experiment: MIC microbroth dilution; β-lactamase class C; format: cell-based; conditions: Cefepime + 4 ug/ml Compound 1
Protocol: as §1

E. coli GC 6539 CMY-2 = experiment: MIC microbroth dilution; β-lactamase class C; format: cell-based; conditions: Cefepime + 4 ug/ml Compound 1
Protocol: as §1

[7] = system: P. aeruginosa GC 3153 Inducible AmpC; experiment: MIC microbroth dilution; β-lactamase class C; format: cell-based; conditions: Cefepime + 4 ug/ml Compound 1
Protocol: as §1

[8] = system: S. marcescens GC 4132 (AmpC); experiment: MIC microbroth dilution; β-lactamase class C; format: cell-based; conditions: Cefepime + 4 ug/ml Compound 1
Protocol: as §1

[9] = system: K. pneumoniae GC 7824 Fox 5; experiment: MIC microbroth dilution; β-lactamase class C; format: cell-based; conditions: Cefepime + 4 ug/ml Compound 1
Protocol: as §1

[10] = system: K. pneumoniae GC 7823 Fox 5; experiment: MIC microbroth dilution; β-lactamase class C; format: cell-based; conditions: K. pneumoniae GC 7823; Cefepime + 4 ug/ml Compound 1
Protocol: as §1

[11] = system: P. aeruginosa GC 1764 (AmpC); experiment: MIC microbroth dilution; β-lactamase class C; format: cell-based; conditions: Cefepime + 4 ug/ml Compound 1
Protocol: as §1

E. coli GC 2894 (AmpC) = experiment: MIC microbroth dilution; β-lactamase class C; format: cell-based; conditions: Cefepime + 4 ug/ml Compound 1
Protocol: as §1

[12] = system: S. marcescens GC 4145 Inducible AmpC; experiment: MIC microbroth dilution; β-lactamase class C; format: cell-based; conditions: Cefepime + 4 ug/ml Compound 1
Protocol: as §1

[13] = system: E. cloacae GC 4142 (AmpC); experiment: MIC microbroth dilution; β-lactamase class C; format: cell-based; conditions: Cefepime + 4 ug/ml Compound 1
Protocol: as §1

[14] = system: E. aerogenes 1697-MP GC 7845 AmpC; experiment: MIC microbroth dilution; β-lactamase class C; format: cell-based; conditions: E. aerogenes GC 7845; Cefepime + 4 ug/ml Compound 1
Protocol: as §1

[15] = system: S. marcescens PT 696 Inducible AmpC; experiment: MIC microbroth dilution; β-lactamase class C; format: cell-based; conditions: Cefepime + 4 ug/ml Compound 1
Protocol: as §1

[16] = system: K. pn GC 3104 (MIR-1 + TEM-1); experiment: MIC microbroth dilution; β-lactamase class A, C; format: cell-based, K. pneumoniae; conditions: Cefepime + 4 ug/ml Compound 1
Protocol: as §1

[17] = system: K. pn GC 6655 (TEM-1 + ACT-1); experiment: MIC microbroth dilution; β-lactamase class A, C; format: cell-based, K. pneumoniae; conditions: Cefepime + 4 ug/ml Compound 1
Protocol: as §1

[18] = system: C. freundii GC 4171 TEM-1 + InducibleAmpC; experiment: MIC microbroth dilution; β-lactamase class A, C; format: cell-based; conditions: C. freundii GC 4171; Cefepime + 4 ug/ml Compound 1
Protocol: as §1

[19] = system: S. marcescens GC 1781 (Sme-1 + AmpC); experiment: MIC microbroth dilution; β-lactamase class A (Cb'ase), C; format: cell-based; conditions: Cefepime + 4 ug/ml Compound 1
Protocol: as §1

[20] = system: K. pneumoniae GC 7635 SHV-1, KPC2; experiment: MIC microbroth dilution; β-lactamase class A, A (Cb'ase); format: cell-based; conditions: Cefepime + 4 ug/ml Compound 1
Protocol: as §1

[21] = system: K. pneumoniae GC 7632 TEM-1 KPC-2, SHV-7, SHV-12; experiment: MIC microbroth dilution; β-lactamase class A, A (Cb'ase), A (ESBL); format: cell-based; conditions: Cefepime + 4 ug/ml Compound 1
Protocol: as §1

[22] = system: E. cloacae GC 7052 SHV-5, Amp C inducable; experiment: MIC microbroth dilution; β-lactamase class A (ESBL), C; format: cell-based; conditions: Cefepime + 4 ug/ml Compound 1
Protocol: as §1

[23] = system: E. aerogenes GC 7039 TEM-4, Amp C inducable; experiment: as above; format: cell-based; conditions: Cefepime + 4 ug/ml Compound 1
Protocol: as §1

[24] = system: E. cloacae GC 7065 TEM-26, SHV-12 Amp C inducable; experiment: as above; format: cell-based; conditions: Cefepime + 4 ug/ml Compound 1
Protocol: as §1

[25] = system: M. morganii GC 1617 TEM-10 + inducible AmpC; experiment: as above; format: cell-based; conditions: Cefepime + 4 ug/ml Compound 1
Protocol: as §1

[26] = system: E. aerogenes GC 7036 TEM-24, Amp C inducable; experiment: as above; format: cell-based; conditions: Cefepime + 4 ug/ml Compound 1
Protocol: as §1

[27] = system: A. baumannii GC 6662 IMI-R; experiment: MIC microbroth dilution; class PBP (penicillin binding protein); format: cell-based; conditions: Cefepime + 4 ug/ml Compound 1
Protocol: as §1

[28] = system: A. baumannii GC 6660 IMI-R; experiment: as above; format: cell-based; conditions: Cefepime + 4 ug/ml Compound 1
Protocol: as §1

[29] = system: A. baumannii GC 6661 IMI-R; experiment: as above; format: cell-based; conditions: Cefepime + 4 ug/ml Compound 1
Protocol: as §1

## O=C([O-])C1=CS[C@@H]2/C(=C\c3cn4c(n3)CCC4)C(=O)N12.[Na+] [Compound 1, (5R), (6Z)-6-(6,7-Dihydro-5H-pyrrolo[1,2-a]imidazol-2-ylmethylene)-7-oxo-4-thia-1-aza-bicyclo[3.2.0]hept-2-ene-2-carboxylic Acid, Sodium Salt]
[1]
  MIC: 1 µg/mL
[2]
  MIC: 0.12 µg/mL
[3]
  MIC: 0.12 µg/mL
[4]
  MIC: 0.12 µg/mL
[5]
  MIC: 1 µg/mL
E. coli GC 2844 (none)
  MIC: 0.06 µg/mL
E. coli GC 2804 (imp)
  MIC: <0.015 µg/mL
[6]
  MIC: 0.03 µg/mL
E. cloacae GC 1475 (P99)
  MIC: 0.12 µg/mL
E. coli GC 6539 CMY-2
  MIC: 0.06 µg/mL
[7]
  MIC: 8 µg/mL
[8]
  MIC: 0.12 µg/mL
[9]
  MIC: 0.12 µg/mL
[10]
  MIC: 0.12 µg/mL
[11]
  MIC: 1 µg/mL
E. coli GC 2894 (AmpC)
  MIC: 0.06 µg/mL
[12]
  MIC: 0.12 µg/mL
[13]
  MIC: 0.12 µg/mL
[14]
  MIC: 0.06 µg/mL
[15]
  MIC: 0.06 µg/mL
[16]
  MIC: 0.50 µg/mL
[17]
  MIC: 0.12 µg/mL
[18]
  MIC: 0.06 µg/mL
[19]
  MIC: 0.12 µg/mL
[20]
  MIC: 8 µg/mL
[21]
  MIC: 16 µg/mL
[22]
  MIC: 1 µg/mL
[23]
  MIC: 0.03 µg/mL
[24]
  MIC: 0.06 µg/mL
[25]
  MIC: 0.12 µg/mL
[26]
  MIC: 0.06 µg/mL
[27]
  MIC: >16 µg/mL
[28]
  MIC: >16 µg/mL
[29]
  MIC: 16 µg/mL
